Results reported in patent publication US20050032873A1, “3-Amino chroman and 2-amino tetralin derivatives” (Wyeth, priority 2003, published 2005).
pEC50, pIC50, pKi: −log10 of the molar value. Counter-ions that a name gives are not always drawn. Like-named read-outs stand apart in the source and are kept apart here.

Assays:
serotonin transporter = molecular target: T1, serotonin transporter (Rattus norvegicus, UniProt P31652); experiment: 5-HT transporter affinity: displacement of 3H-paroxetine from male rat cortical membranes; format: binding; details: displacement of 3H-paroxetine; male rat cortical membranes; read-out: 5-HT Transporter Affinity Ki
T1 construct: displace ^3H-paroxetine from male rat cortical membranes; from tissue; host or cells: male rat cortical membranes

[1] = molecular target: T2, cloned human 5-HT1A receptors (Homo sapiens, UniProt P08908); experiment: 35S-GTPγS binding assay, 5-HT1A function; format: biochemical; details: for pEC50: agonist potency; for pIC50: antagonist potency, reversal of 8-OH-DPAT, read-out: 5-HT1A Function GTPγS IC50
T2 construct: expressed in transfected cells
T2 sequence (P08908 1-422): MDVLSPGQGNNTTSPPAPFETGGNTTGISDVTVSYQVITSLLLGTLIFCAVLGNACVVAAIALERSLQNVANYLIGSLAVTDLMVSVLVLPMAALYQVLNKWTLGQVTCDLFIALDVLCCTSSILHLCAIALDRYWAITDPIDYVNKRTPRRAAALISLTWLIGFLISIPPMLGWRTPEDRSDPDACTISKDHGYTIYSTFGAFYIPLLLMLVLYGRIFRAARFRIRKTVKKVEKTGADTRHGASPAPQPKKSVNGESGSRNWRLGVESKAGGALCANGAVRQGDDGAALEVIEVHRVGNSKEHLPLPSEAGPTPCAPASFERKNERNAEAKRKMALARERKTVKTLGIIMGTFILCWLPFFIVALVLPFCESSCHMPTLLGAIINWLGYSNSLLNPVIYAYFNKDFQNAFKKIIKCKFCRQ

5-HT1A receptor [2] = molecular target: T3, 5-HT1A receptor (Homo sapiens, UniProt P08908); experiment: cAMP accumulation assay, 5-HT1A function; format: cell-based; details: for pEC50: cells marked EC50 (agonist); for Emax: in brackets after EC50 or IC50, read-out: 5-HT1A Function cAMP (Emax); for pIC50: cells marked IC50 (antagonist), read-out: 5-HT1A Function cAMP IC50
T3 sequence (P08908 1-422): T2 sequence (P08908 1-422)

5-HT1A receptor [3] = molecular target: T3, 5-HT1A receptor; experiment: 5-HT1A receptor affinity: displacement of [3H] 8-OH-DPAT; format: binding; parameters: expressed in transfected cells; details: for pKi: displacement of [3H] 8-OH-DPAT, CHO cells stably transfected with human 5-HT1A receptors, read-out: 5-HT1A Receptor Affinity Ki; for inhibition at 1 µM: read-out: 5-HT1A Receptor Affinity, % @ 1 μM
[4] = maximum stimulatory effect, in brackets after EC50, read-out: 5-HT1A Function GTPγS (Emax)
[5] = maximum inhibitory effect, in brackets after IC50, read-out: 5-HT1A Function GTPγS (Imax)

T1 sequence (P31652 whole entry): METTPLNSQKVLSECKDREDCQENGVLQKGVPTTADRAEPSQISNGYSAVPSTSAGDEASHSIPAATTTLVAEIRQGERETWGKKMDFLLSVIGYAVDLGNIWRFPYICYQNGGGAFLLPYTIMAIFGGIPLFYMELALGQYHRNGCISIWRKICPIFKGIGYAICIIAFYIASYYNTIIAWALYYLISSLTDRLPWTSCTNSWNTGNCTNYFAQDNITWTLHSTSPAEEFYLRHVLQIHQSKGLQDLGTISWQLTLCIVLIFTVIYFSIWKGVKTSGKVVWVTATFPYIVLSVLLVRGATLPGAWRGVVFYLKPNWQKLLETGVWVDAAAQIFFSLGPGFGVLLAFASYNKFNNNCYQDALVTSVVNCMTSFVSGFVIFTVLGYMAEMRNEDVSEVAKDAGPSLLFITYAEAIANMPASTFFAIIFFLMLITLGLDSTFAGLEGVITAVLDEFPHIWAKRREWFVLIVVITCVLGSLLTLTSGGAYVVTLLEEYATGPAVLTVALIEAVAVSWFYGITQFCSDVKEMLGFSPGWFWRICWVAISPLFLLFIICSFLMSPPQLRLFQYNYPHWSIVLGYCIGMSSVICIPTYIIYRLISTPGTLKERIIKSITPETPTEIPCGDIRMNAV

| SMILES | melting point | pKi (serotonin transporter) | Emax (5-HT1A receptor [2]) [%] | pKi (5-HT1A receptor [3]) | pIC50 [1] | Emax [1, 5] [%] | pIC50 (5-HT1A receptor [2]) | pEC50 [1] | Emax [1, 4] [%] | pEC50 (5-HT1A receptor [2]) | inhibition at 1 µM (5-HT1A receptor [3]) [%] |
| --- | --- | --- | --- | --- | --- | --- | --- | --- | --- | --- | --- |
| CC(CCc1c[nH]c2ccc(F)cc12)N(CC1CC1)C1COc2c(F)ccc(C(N)=O)c2C1 (single isomer, unassigned; (-)) (as salt: hydrochloride) [Compound 15a, (−)-3-{(cyclopropylmethyl)[3-(5-fluoro-1H-indol-3-yl)-1-methylpropyl]amino}-8-fluorochromane-5-carboxamide] | 135 °C (dec.) | – | – | – | – | – | – | – | – | – | – |
| CCN(C(C)CCc1c[nH]c2ccc(F)cc12)C1COc2c(F)ccc(C(N)=O)c2C1 (single isomer, unassigned; (-)) (as salt: hydrochloride) [Compound 16a, (−)-3-{ethyl[3-(5-fluoro-1H-indol-3-yl)-1-methylpropyl]amino}-8-fluorochromane-5-carboxamide] | 132 °C (dec.) | – | – | – | – | – | – | – | – | – | – |
| NC(=O)c1cccc2c1CC(NCCCc1c[nH]c3ccc(F)cc13)CO2 (centres unmarked) [Compound 133, 3-{[3-(5-fluoro-1H-indol-3-yl)propyl]amino}chromane-5-carboxamide] | 153 to 155 °C | 7.63 | 84 | 7.19 | – | – | – | 5.52 | 100 | 6.89 | – |
| NC(=O)c1cccc2c1CC(N(CCCc1c[nH]c3ccc(F)cc13)C1CCC1)CO2 (centres unmarked) [Compound 134, 3-{cyclobutyl[3-(5-fluoro-1H-indol-3-yl)propyl]amino}chromane-5-carboxamide] | 102 to 105 °C | 8.06 | 81 | 8.76 | 6.73 | 69 | – | 7.66 | 28 | 7.72 | – |
| COc1cccc2c(CCNC3COc4c(F)ccc(C(N)=O)c4C3)coc12 (centres unmarked) [Compound 156, 8-fluoro-3-{[2-(7-methoxy-1-benzofuran-3-yl)ethyl]amino}chromane-5-carboxamide] | 172 to 174 °C | 6.42 | – | – | – | – | – | – | – | – | 28 |

The next lines start with results.

| melting point | pKi (serotonin transporter) | Emax (5-HT1A receptor [2]) [%] | pKi (5-HT1A receptor [3]) | pIC50 [1] | Emax [1, 5] [%] | pIC50 (5-HT1A receptor [2]) | SMILES | pEC50 [1] | Emax [1, 4] [%] | pEC50 (5-HT1A receptor [2]) | inhibition at 1 µM (5-HT1A receptor [3]) [%] |
| --- | --- | --- | --- | --- | --- | --- | --- | --- | --- | --- | --- |
| 130 to 131 °C | 6.38 | – | – | – | – | – | O=C(O)c1cccc2c1CC(N(CCCc1c[nH]c3c(F)cc(F)cc13)C1CCC1)CO2 (centres unmarked) [Compound 137, 3-{cyclobutyl[3-(5,7-difluoro-1H-indol-3-yl)propyl]amino}chromane-5-carboxylic acid] | – | – | – | 0 |
| 163 to 166 °C | 6.63 | 0 | 7.36 | 5.52 | 100 | 6.22 | COc1cccc2c(CCCNC3COc4c(F)ccc(C(N)=O)c4C3)coc12 (centres unmarked) [Compound 161, 8-fluoro-3-{[3-(7-methoxy-1-benzofuran-3-yl)propyl]amino}chromane-5-carboxamide] | – | – | – | – |
| 138 to 141 °C | 7.35 | 0 | 7.51 | 5.74 | 100 | 6.86 | COc1cccc2c(CCCCNC3COc4c(F)ccc(C(N)=O)c4C3)coc12 (centres unmarked) [Compound 167, 8-fluoro-3-{[4-(7-methoxy-1-benzofuran-3-yl)butyl]amino}chromane-5-carboxamide] | – | – | – | – |
